The values that follow come from patent publication US9745345B2, “Anti-tumor polypeptides and method for preparing anti-tumor drugs comprisng the same” (priority 2013, dated 2017).

Experiment [1] concerns SGC7901 cells. Description: Western Blot of PARP-1 in SGC7901 cells. The class given is cell-based. Conditions: CPP-1 and ATO combined action group versus other groups. On the procedure: The combined effect of ATO and polypeptide JWA-6 on the self-destruction of protein expression was also determined A375 cells in the logarithmic phase of growth were conventionally digested and 5×10^5 cells were inoculated evenly in a 60 mm cell culture dish, and different doses of ATO were used to individually treat the cells for 24 hrs, or different doses of ATO in combination with different doses of polypeptide JWA-6 were used to treat the cells for 24 hrs, after which 0.18 mL of RIPA lysis buffer containing 0.5% phenylmethanesulfonyl fluoride (PMSF) was added to extract protein. After centrifugation at 12000×g for 15 minutes, the supernatant was taken, protein concentration was examined. Based on the molecular weight measured, a polyacrylamide gel having a suitable concentration was chosen for protein electrophoresis where each well was added with […] of protein, and the conditions for electrolysis were 60 V, 30 minutes and 90 V, 1-1.5 hrs. After completion of the electrolysis, semi-dry transfer was performed to transfer the protein from the gel onto a polyvinylidene difluoride (PVDF) membrane. After completion of the transfer, the membrane was blocked with 5% skim milk at room temperature for 1-2 hrs. Then, the membrane was washed 3 times (each lasting 5 minutes) using Tris-buffered Saline with Tween (TBST) containing 0.1% Tween-20, and incubation of the corresponding antibody was performed overnight at 4° C. On the next day, membrane was washed 3 times (each lasting 5 minutes) using Tris-buffered Saline with Tween (TBST) containing 0.1% Tween-20; incubation of secondary antibody was performed at room temperature for 1-2 hrs; and again membrane was washed 8 times (each lasting 5 minutes) using Tris-buffered Saline with Tween (TBST) containing 0.1% Tween-20. The membrane was added with enhanced chemiluminescence (ECL) liquid and exposed. […]
(In general: In western blotting, separated proteins are transferred to a membrane and probed.)

The test system of experiment [2] is SGC7901 cells. In words: Annexin V-PE/7-AAD flow cytometry of apoptosis in SGC7901 cells. The class given is cell-based. The source says: Six groups with different treatment methods directed against SGC7901 cells were designed: blank control group; transfection Flag-control group; transfection Hag-JWA group; transfection Flag-JWA and ATO combined treatment group; ATO treatment group; and polypeptide CPP-1 and ATO combined treatment group. After 24 hrs of treatment for each group, Annexin V-PE/PI flow cytometry was used to examine apoptosis and Western Blot was used to detect the level of PARP-1. […]
In normal cells, phosphatidyl serine (PS) are distributed on the inside of cell membrane lipid bilayer, and at the early stage of apoptosis the phosphatidyl serine (PS) in cell membranes is turned over from the inside of lipid membrane to the outside thereof. […] Annexin V was labeled with fluorescein phycoerythrin (PE); fluorescence microscopy or flow cytometry could be employed to examine apoptosis with the labeled Annexin V used as a fluorescent probe. […] Cells were divided into three group by the fluorescence intensity of 7-AAD labeling DNA: strong fluorescence of 7-AAD indicates dead cells, weak fluorescence of 7-AAD indicates apoptotic cells, and undetectable fluorescence of 7-AAD indicates normal active cells. […]
(In general: In flow cytometry, cells or beads pass a laser one at a time.)

The next experiment deals with B16 cells. In words: Western Blot of PARP-1 in B16 cells. The class given is cell-based. Conditions: JWA-6 in combination with ATO, 24 hrs.
The test system of experiment [3] is human melanoma A375 cells. In words: Human melanoma A375 subcutaneous xenograft in NOD/SCID mice, intraperitoneal injection of polypeptides. The class given is in vivo. Conditions: Example 5; 50 mg/kg intraperitoneal, alternate days, 5 times. An excerpt: The polypeptide designed and synthesized in this example was JWA-6+RGD whose sequence was SEQ ID NO: 7, i.e. 6-aminocaproic acid-FPGSDRF-GGGG-RGD, wherein amino acid S was phosphorylated. In addition, the N-terminus of the polypeptide sequence was acetylated and the C-terminus thereof was amidated during synthesis to prevent rapid degradation of the polypeptide. In this example, non-obese diabetic/severe combined immunodeficiency (NOD/SCID) mice were chosen for tumor-bearing model and the method for dorsal subcutaneous tumor bearing by inoculation of human melanoma A375 cells is the same as Example 2. The mice were randomly divided into four treatment groups after the tumors grew to a volume of about 100 mm^3. […]
Then, 50 mg/kg polypeptide JWA-6, 10 mg/kg polypeptide JWA-6+RGD, 50 mg/kg polypeptide JWA-6+RGD, and 50 mg/kg non-pep (the polypeptide sequence used was the same as Example 3) were injected intraperitoneally. The various groups were administered with injection on alternate days for 5 times consecutively; and the body weight of the mice and their tumor diameters were measured at each administration. After completion of the experiment the mice were sacrificed after anesthesia, tumors were separated from the bodies and the tumor weights measured.
Thereafter, the tumor bearing mice were obtained using the foregoing method of this example and divided into seven injection groups which were intraperitoneally injected with polypeptides JWA-6+RGD, JWA-6+RGD0, JWA-6+RGD1, JWA-6+RGD3, JWA-6+RGD7, JWA-6+RGD10, and non-pep (the polypeptide sequence used was the same as Example 3) at a dose of 50 mg/kg. The various groups were administered by intraperitoneal injection on alternate days for 5 times consecutively; and the body weight of the mice and their tumor diameters were measured at each administration. The day of first administration was taken as the first day, and the experiment was stopped on the twelfth day when the mice were sacrificed after anesthesia, and tumors were separated from the bodies and the tumor weights were measured.
On the technique in general: Xenograft models place foreign cells or tissue in a host animal.

In experiment [4] the test system is A375 cells. In words: Western Blot of apoptosis-related molecules (PARP-1, caspase-3) in A375 cells. The class given is cell-based, human. Conditions: JWA-6 in combination with ATO, 24 hrs; compared to untreated group and ATO alone. On the procedure:
The combined effect of ATO and polypeptide JWA-6 on the self-destruction of protein expression was also determined A375 cells in the logarithmic phase of growth were conventionally digested and 5×10^5 cells were inoculated evenly in a 60 mm cell culture dish, and different doses of ATO were used to individually treat the cells for 24 hrs, or different doses of ATO in combination with different doses of polypeptide JWA-6 were used to treat the cells for 24 hrs, after which 0.18 mL of RIPA lysis buffer containing 0.5% phenylmethanesulfonyl fluoride (PMSF) was added to extract protein. After centrifugation at 12000×g for 15 minutes, the supernatant was taken, protein concentration was examined. Based on the molecular weight measured, a polyacrylamide gel having a suitable concentration was chosen for protein electrophoresis where each well was added with […] of protein, and the conditions for electrolysis were 60 V, 30 minutes and 90 V, 1-1.5 hrs. After completion of the electrolysis, semi-dry transfer was performed to transfer the protein from the gel onto a polyvinylidene difluoride (PVDF) membrane. After completion of the transfer, the membrane was blocked with 5% skim milk at room temperature for 1-2 hrs. Then, the membrane was washed 3 times (each lasting 5 minutes) using Tris-buffered Saline with Tween (TBST) containing 0.1% Tween-20, and incubation of the corresponding antibody was performed overnight at 4° C. On the next day, membrane was washed 3 times (each lasting 5 minutes) using Tris-buffered Saline with Tween (TBST) containing 0.1% Tween-20; incubation of secondary antibody was performed at room temperature for 1-2 hrs; and again membrane was washed 8 times (each lasting 5 minutes) using Tris-buffered Saline with Tween (TBST) containing 0.1% Tween-20. The membrane was added with enhanced chemiluminescence (ECL) liquid and exposed.
Polypeptide CPP-JWA-6 at a dose of 20 μM, 50 μM was applied individually and applied in combination with ATO (5 μM) on A375 cells (as shown in FIG. 40) and SGC7901 cells (as shown in FIG. 41) for 24 hrs before protein was extracted, and the Western Blot method of Example 7 was used to examine the changes in apoptosis-related molecules.

Experiment [5] has as its system Mouse Melanoma B16F10 Cells. Description: Cell proliferation with CCK8 reagent, B16F10 cells. The class given is cell-based. Conditions: 0-50 μM, 24, 48 and 72 hrs, in comparison with the control group. As to the method: (§1) B16F10 or A375 cells in the logarithmic phase of growth were trypsinized and seeded in a 96-well plate (5×10^3 cells/well), and were treated with different doses (0 μM, 5 μM, 10 μM, 25 μM, 50 μM) of polypeptide JWA-1, JWA-5, JWA-6 or non-pep (the polypeptide sequence used was the same as Example 3) for 24 hrs, 48 hrs and 72 hrs, respectively. The original culture medium was removed from the 96 wells at the indicated time and cell proliferation was determined with CCK8 reagent according to the manufacturer's instructions. Four duplicate samples were taken from each group and the experiments were repeated for three times.

Experiment [6] relates to A375 cells. Description: Cytoactivity of A375 cells treated with ATO alone or with polypeptides in combination with ATO. The class given is cell-based, human. As to the method: Firstly, the dose and time for treatment of A375 cells with ATO were determined. A375 cells in the logarithmic phase of growth were conventionally digested and seeded in a 96-well plate (5×10^3 cells/well), and different doses (5 μM, 10 μM, 25 μM, 50 μM) of ATO were used to treat the cells for 24 hrs and 48 hrs after cell attachment. It was discovered that the activity of A375 cells was reduced by 40% after 24 hrs of treatment with 5 μM ATO (as shown in FIG. 24), and that the cell growth inhibition rate was approximately 100% after 48 hrs of treatment with different doses of ATO (as shown in FIG. 25). Therefore, ATO with a concentration smaller than or equal to 5 μM was chosen to treat the cells for 24 hrs for subsequent reference of dose and time for combined medication.

In experiment [7] the test system is Human Melanoma A375 Cells. Description: Cell proliferation with CCK8 reagent, A375 cells. The class given is cell-based. Conditions: 0-50 μM, 24, 48 and 72 hrs, in comparison with the control group. As to the method:
as §1

Experiment [8] has as its system SGC7901 gastric cancer cell. Description: Fluorescence of FITC-modified cell-penetrating peptides after entry into SGC7901 cells. The class given is cell-based. Conditions: 20 μM, 3 hrs. An excerpt:
To enable JWA functional polypeptides to effectively penetrate into tumor cells, four typical CPPs: R9, TAT, pep-1, 2K (see Table 3), and a blank control having only JWA-1 were selected, the cell-penetrating peptide (CPP) with the highest cell-penetrating effect, its optimal action concentration and optimal action time were selected from the cell model.
To facilitate the use of fluorescence microscopy to directly observe whether polypeptides have the ability to enter cells, the N-terminuses of the aforementioned sequences and JWA-1 were modified with fluorescein isothiocyanate (FITC) and the C-terminuses thereof were amidated.

Square brackets hold non-standard residues; d marks the D form. Ends that are not written are not given here. pS = N[C@@H](COP(=O)(O)O)C(=O)O; Ahx = NCCCCCC(=O)O

Consider “6-aminocaproic acid-(R)9-FFPGSDRFA ([Ahx]RRRRRRRRRFFPG[pS]DRFA) [CPP-1]”, for which the “expression of PARP-1 spliceosome” value with SGC7901 cells [1] is given as “higher than those of other groups”. For the same substance, in the experiment on SGC7901 cells [2] (20 μM polypeptide 3 hrs, then 5 μM ATO 24 hrs (combined action group)), the apoptosis rate came to 55.76%.
For the substance “6-aminocaproic acid-FPGSDRF ([Ahx]FPG[pS]DRF) [JWA-6]”, the “changes of PARP-1” value in the experiment with B16 cells is given as “changes of PARP-1 were also seen”. For the same substance, the tumor inhibition effect result in experiment [3] is recorded as “a certain degree of tumor inhibition effect”. In the experiment with A375 cells [4], the “cleaved PARP-1” value is on record as “significantly increased” and the “cleaved caspase-3” value is reported as “significantly increased”. Also, the “inhibition effect on B16F10 cells” value in experiment [5] is “no inhibition effect”. Further, in the experiment on A375 cells [6] (polypeptide 50-500 μM in combination with ATO 0.5-5 μM, 24 and 48 hrs), the “cytoactivity of A375 cells, combined use with ATO” value was “obvious toxicity”. In addition, the “inhibition effect on A375 cells” value in experiment [7] is “no inhibition effect”.
As for “6-aminocaproic acid-RRRRRRRRR ([Ahx]RRRRRRRRR) [R9, cell-penetrating peptide (CPP)]”, the “fluorescence after entry into cells, differences between R9 group and other groups” value in experiment [8] is listed as “the most significant”.
Turning to “arsenic trioxide [ATO, reference compound]”, the “activity of A375 cells reduced by” value in the experiment with A375 cells [6] (5 μM ATO alone, 24 hrs) was found to be 40%. Also, in the experiment with A375 cells [6] (ATO alone, different doses (5, 10, 25, 50 μM), 48 hrs), the “cell growth inhibition rate” value is recorded as “approximately 100%”. The substance also had an apoptosis rate in the experiment with SGC7901 cells [2] (pure ATO treatment group, 24 hrs) of 24.69%.
